For this experiment, the system named is murine syngeneic cancer model with a homozygous deletion of the Mtap gene (Mtap^DEL). The experiment can be described thus: MRTX1719 + immune checkpoint blockade combination study, tumor growth in Mtap^DEL syngeneic model. Format: in vivo, BALB/c mice. As for the experimental part:
Immune-competent female BALB/c mice were implanted with murine syngeneic cancer model with a homozygous deletion of the Mtap gene (Mtap^DEL). Mouse health was monitored daily, and caliper measurements began when tumors were palpable. Tumor volume measurements were determined utilizing the formula 0.5×L×W2 in which L refers to length and W refers to width of each tumor. When tumors reached approximately 80 mm^3, animals were randomized to receive A) vehicle (0.5% methylcellulose (4000 cps)/0.2% Tween80 in water) and isotype control antibodies), B) immune checkpoint blockade antibodies targeting mouse-Ctla-4 and mouse-Pd-1 and vehicle, C) a PRMT5 inhibitor and isotype control antibodies, or D) the PRMT5 inhibitor and immune checkpoint blockade antibodies targeting mouse-Ctla-4 and mouse-Pd-1. Tumor volumes were measured two or three times per week (n=10/treatment group). Tumor Growth Inhibition (% TGI) was calculated using the formula: (1−(Final Drug Treated Tumor Volume−Initial Drug Treated Tumor Volume)/(Final Vehicle Treated Tumor Volume−Initial Vehicle Treated Tumor Volume))*100.
This example was conducted according to the study procedure described above. The PRMT5 inhibitor was MRTX1719 administered at 100 mg/kg once a day (QD). MRTX1719 used is as described herein.
The immune checkpoint antibody targeting mouse-Ctla-4 was dosed on Day 0 while the antibody targeting mouse-Pd-1 was dosed on Day 0, 3 and 6.

Turning to `Cn1ncc(-c2ccc3c(=O)[nH]nc(CN)c3c2)c1-c1c(F)c(Cl)cc(OC2CC2)c1C#N` [MRTX1719], the Tumor volume (Study Day 1, MRTX1719 100 mg/kg QD, aCTLA-4 Day 0, aPD-1 Day 0, 3, 6) was 115 mm^3; the Tumor volume (Study Day 3, MRTX1719 100 mg/kg QD, aCTLA-4 Day 0, aPD-1 Day 0, 3, 6) is on record as 118 mm^3; the Tumor volume (Study Day 6, MRTX1719 100 mg/kg QD, aCTLA-4 Day 0, aPD-1 Day 0, 3, 6) amounted to 154 mm^3; the Tumor volume (Study Day 8, MRTX1719 100 mg/kg QD, aCTLA-4 Day 0, aPD-1 Day 0, 3, 6) was 182 mm^3; the Tumor volume (Study Day 10, MRTX1719 100 mg/kg QD, aCTLA-4 Day 0, aPD-1 Day 0, 3, 6) stood at 233 mm^3; the Tumor volume (Study Day 13, MRTX1719 100 mg/kg QD, aCTLA-4 Day 0, aPD-1 Day 0, 3, 6) is on record as 352 mm^3. For the same molecule, the Tumor volume is, setting by setting: (Study Day 15, MRTX1719 100 mg/kg QD, aCTLA-4 Day 0, aPD-1 Day 0, 3, 6) 558 mm^3; (Study Day 17, MRTX1719 100 mg/kg QD, aCTLA-4 Day 0, aPD-1 Day 0, 3, 6) 858 mm^3; (Study Day 20, MRTX1719 100 mg/kg QD, aCTLA-4 Day 0, aPD-1 Day 0, 3, 6) 1010 mm^3; (Study Day 22, MRTX1719 100 mg/kg QD, aCTLA-4 Day 0, aPD-1 Day 0, 3, 6) 1171 mm^3; (Study Day 24, MRTX1719 100 mg/kg QD, aCTLA-4 Day 0, aPD-1 Day 0, 3, 6) 1312 mm^3; (Study Day 27, MRTX1719 100 mg/kg QD, aCTLA-4 Day 0, aPD-1 Day 0, 3, 6) 1644 mm^3. The Tumor volume (Study Day −1 (before dosing), n=10/group) was found to be 82 mm^3. The “% TGI (Day 17)” value (Tumor Growth Inhibition vs vehicle, Day 17, MRTX1719 100 mg/kg QD, aCTLA-4 Day 0, aPD-1 Day 0, 3, 6) came to 43.5%.

(Values after patent US20250312344A1, “COMBINATION THERAPIES USING PRMT5 INHIBITORS AND IMMUNE CHECKPOINT INHIBITORS FOR THE TREATMENT OF CANCER” (MIRATI THERAPEUTICS, INC., priority 2024, published 2025).)
